Test results from patent publication US5081241A, “Spiro-pyridazines and analogs thereof useful as aldose reductase inhibitors” (American Home Products Corporation, priority 1990, dated 1992).

Assays:
aldose reductase = target: T1, aldose reductase (Bos taurus, UniProt P16116); experiment: in vitro aldose reductase inhibition (modified Hayman and Kinoshita procedure; enzyme from bovine lens); assay type: biochemical; settings: 10^-5
T1 construct: preparation of the enzyme from bovine lens; from tissue; host or cells: bovine lens
Method: (§1) (c) The polyol determination was performed by a modification of the procedure of M. Kraml and L. Cosyns, Clin. Biochem., 2, 373 (1969). Only two minor reagent changes were made: (a) the rinsing mixture was an aqueous 5% (w/v) trichloroacetic acid solution and (b) the stock solution was prepared by dissolving 25 mg of dulcitol in 100 mL of an aqueous trichloroacetic acid solution. [N.B.: For each experiment the average value found in the tissue from rats fed the glucose diet was subtracted from the individual values found in the corresponding tissue in galactose-fed rats to obtain the amount of polyol accumulated.] The aldose reductase inhibiting effects of the compounds of formula (I) were also tested by employing an in vitro testing procedure similar to that described by S. Hayman and J. H. Kinoshita, J. Biol. Chem., 240, 877 (1965). In the present case the procedure of Hayman and Kinoshita was modified in that the final chromatography step was omitted in the preparation of the enzyme from bovine lens.

[1] = tested on: accumulation of dulcitol in the lenses, sciatic nerves and diaphragm of rats fed galactose; experiment: in vivo lowering of galactitol (dulcitol) accumulation in galactosemic rats; set-up: species or system male Sprague-Dawley rats
From the text: The aldose reductase inhibiting property of the compounds of this invention and the utilization of the compounds in preventing, diminishing and alleviating diabetic complications are demonstrable in experiments using galactosemic rats, see Dvornik et al., Science, 182, 1146 (1973). Such experiments are exemplified hereinbelow after the listing of the following general comments pertaining to these experiments:
(a) Four or more groups of six male rats, 50-70 g, Sprague-Dawley strain, were used. The first group, the control group, was fed a mixture of laboratory chow (rodent Laboratory Chow, Purina) and glucose at 20% (w/w %) concentration. An untreated galactosemic group was fed a similar diet in which galactose was substituted for glucose. The third group was fed a diet prepared by mixing a given amount of the test compound with the galactose containing diet. The concentration of galactose in the diet of the treated groups was the same as that for the untreated galactosemic group.
(b) After four days, the animals were killed by euthanization. Both the lens and sciatic nerve were removed, weighed and stored frozen for polyol determination.
as §1
The figures under L, N, and D represent the percentage decrease of dulcitol accumulation in the tissues of the lens, sciatic nerve, and diaphragm, respectively, for treated rats as compared to untreated rats.

[2] = feed or water, 55 mg/kg/day, 96 h

| SMILES | % Inhibition In Vitro (aldose reductase) [%] | % Lowering Galacititol Accumulation In Vivo % (D) ([1]; diaphragm, dose 47 mg/kg/day in diet, 4 days, vs untreated galactosemic rats) [%] | % Lowering Galacititol Accumulation In Vivo % (L) ([1]; lens, dose 47 mg/kg/day in diet, 4 days, vs untreated galactosemic rats) [%] | % Lowering Galacititol Accumulation In Vivo % (D) ([1]; diaphragm, dose 25 mg/kg/day in diet, 4 days, vs untreated galactosemic rats) [%] | % Lowering Galacititol Accumulation In Vivo % (D) [1, 2] [%] |
| --- | --- | --- | --- | --- | --- |
| CN1C(=O)CC2(C(=O)N(Cc3ccc(Br)cc3F)C(=O)c3ccc(F)cc32)C(=O)N1C (centres unmarked) [R^1 = F, R^5 = CH3, 2-[(4-bromo-2-fluorophenyl)methyl]-6-fluoro-1',2'-dimethylspiro[isoquinoline-4(1H),4'(1'H)-pyridazine]-1,3,3',6'(2H,2'H,5'H)-tetrone] | 5 | 59 | 18 |  |  |
| CN1C(=O)CC2(C(=O)N(Cc3ccc(Br)cc3F)C(=O)c3ccccc32)C(=O)N1C (centres unmarked) [R^1 = H, R^5 = CH3, 2-[(4-bromo-2-fluorophenyl)methyl]-1',2'-dimethylspiro[isoquinoline-4(1H),4'(1'H)-pyridazine]-1,3,3',6'(2H,2'H,5'H)-tetrone] | 6 |  |  | 48 | 82 |
| CN1NC(=O)C2(CC1=O)C(=O)N(Cc1ccc(Br)cc1F)C(=O)c1ccccc12 (centres unmarked) [R^1 = H, R^5 = H, 2-[(4-bromo-2-fluorophenyl)methyl]-1'-methylspiro[isoquinoline-4(1H),4'(1'H)-pyridazine]-1,3,3',6'(2H,2'H,5'H)-tetrone] | 21 |  |  |  | 21 |
